Data from patent US20110189157A1, “USE OF HUMAN HYALURONIDASES FOR AXONAL REGROWTH” (priority 2008, published 2011).

Key:
[1] = system: damaged adult nigrostriatal tract; conditions: rat, cited from earlier work
[2] = Chondroitinase activity assay: cleavage of biotin-labelled CS in solution, intact substrate detected on protamine-coated microplate; conditions: 0.8-100 milliunits enzyme; biotin-CS 0.01 μg/ml; 37° C., 1 h; FIG. 3
Procedure: A solid phase, for example a microtiter plate, is coated with protamine by incubation of 100 μl/well of a 0.003% solution of protamine sulfate at 37° C. for 24 hours. Thereafter, plates were washed 3 times with A dest. and stored in the dark.
Plates were washed 3 times with buffer (PBS/0.01% Tween 20) and Avidin-POD (1 μg/ml in PBS/5% BSA) was added.
After 15 min plates were washed 5 times with PBS and 100 μl OPD-solution (0.667 mg/ml) was added.
After 15 min the reaction was stopped by addition of 100 μl of 0.5 Mol H2SO4. OD was measured at 490 nm using a microplate reader.
The enzyme reaction is carried out by mixing 50 μl of biotin-labelled CS at 0.01 μg/ml with increasing amounts of chondroitinase ABC, e.g. 0.8-100 nano-units of chondroitinase ABC. Samples were brought to a volume of 100 μl by addition of PBS.
This mixture is incubated at 37° C. for 1 h. Thereafter the enzyme was inactivated by heating at 100° C. for 10 min.
Samples (85 μl of the samples) were transferred to the CS-BP (protamine)-coated microplate and incubated for 1 hour at room temperature.
The enzyme reaction is carried out by mixing 50 μl of biotin-labelled CS at 0.01 μg/ml with increasing amounts of hyaluronidase, e.g. 0.8-100 milliunits of hyaluronidase. Samples were brought to a volume of 100 μl by addition of PBS.
This mixture is incubated at 37° C. for 1 h. […]

Row | Substance | persistence of active enzyme in the injured CNS ([1]; in vivo) | axon regeneration ([1]; single dose injected adjacent to damaged nigrostriatal tract) | degradation of biotin-labelled chondroitin sulfate (decrease in signal, OD 490 nm) [2]
1 | chondroitinase ABC | at least 10 days | promoted axon regeneration | –
2 | hyaluronidase | – | – | dose-dependent degradation
